Data on three compounds can be found in ChEMBL document CHEMBL1697781, “Assessment of the health effects of chemicals in humans: II. Construction of an adverse effects database for QSAR modeling” (Curr Drug Discov Technol, 2004).

Conditions in all cases: human; call rule not given here
In data set [1] the test system is Hepatotoxicity. Nature of the data set: FDA HLAED, lactate dehydrogenase (LDH) increase.
Data set [2] deals with Hepatotoxicity. Briefly: FDA HLAED, serum glutamic oxaloacetic transaminase (SGOT) increase.
Data set [3] deals with Hepatotoxicity. Nature of the data set: FDA HLAED, liver enzyme composite activity.
For data set [4], the system named is Hepatotoxicity. Briefly: FDA HLAED, serum glutamic pyruvic transaminase (SGPT) increase.
The test system of data set [5] is Hepatotoxicity. Nature of the data set: FDA HLAED, alkaline phosphatase increase.
Data set [6] concerns Hepatotoxicity. Nature of the data set: FDA HLAED, gamma-glutamyl transferase (GGT) increase.
Throughout, for GGT Increase - Index Value: reference of the scale not given here.
Throughout, for LDH Increase - Index Value: reference of the scale not given here.

In the case of `COCC(=O)Nc1c(I)c(C(=O)NCC(O)CO)c(I)c(C(=O)N(C)CC(O)CO)c1I` (centres undefined) [IOPROMIDE], in the data set on Hepatotoxicity [1], the “LDH Increase - Activity Score” value was “Inactive”, the “LDH Increase - Index Value” was found to be 0 and the “LDH Increase - Number of Reports” value is on record as under 4. For the same compound, in the data set with Hepatotoxicity [2], the “SGOT Increase - Activity Score” value is reported as “Inactive”, the “SGOT Increase - Index Value” is listed as 0 and the “SGOT Increase - Number of Reports” value is under 4. For the same compound, in the data set on Hepatotoxicity [3], the “Composite Activity - Active” value turned out to be 0, the “Composite Activity - Marginal” value is 0 and the “Composite Activity - Score” value is “Inactive”. For the same compound, in the data set with Hepatotoxicity [4], the “SGPT Increase - Activity Score” value is given as “Inactive”, the “SGPT Increase - Index Value” was found to be 0 and the “SGPT Increase - Number of Reports” value is on record as under 4. In the data set on Hepatotoxicity [5], the “Alkaline Phosphatase Increase - Activity Score” value is recorded as “Inactive”, the “Alkaline Phosphatase Increase - Index Value” amounted to 0 and the “Alkaline Phosphatase Increase - Number of Reports” value was under 4. Moreover, in the data set on Hepatotoxicity [6], the “GGT Increase - Activity Score” value is listed as “Inactive”, the “GGT Increase - Index Value” amounted to 0 and the “GGT Increase - Number of Reports” value is reported as under 4.

On to `O=C(NCC(O)CO)c1c(I)c(C(=O)NCC(O)CO)c(I)c(N(CCO)C(=O)CO)c1I` (centres undefined) [IOVERSOL], for which, in the data set on Hepatotoxicity [1], the “LDH Increase - Activity Score” value is given as “Inactive”, the “LDH Increase - Index Value” worked out at 400 and the “LDH Increase - Number of Reports” value is given as under 4. Also, in the data set on Hepatotoxicity [2], the “SGOT Increase - Activity Score” value was “Inactive”, the “SGOT Increase - Index Value” was 0 and the “SGOT Increase - Number of Reports” value is recorded as under 4. Besides, in the data set on Hepatotoxicity [3], the “Composite Activity - Active” value was determined as 0, the “Composite Activity - Marginal” value is listed as 0 and the “Composite Activity - Score” value is recorded as “Inactive”. In the data set on Hepatotoxicity [4], the “SGPT Increase - Activity Score” value is listed as “Inactive”, the “SGPT Increase - Index Value” worked out at 0 and the “SGPT Increase - Number of Reports” value is recorded as under 4. In addition, in the data set with Hepatotoxicity [5], the “Alkaline Phosphatase Increase - Activity Score” value was “Inactive”, the “Alkaline Phosphatase Increase - Index Value” turned out to be 0 and the “Alkaline Phosphatase Increase - Number of Reports” value is on record as under 4. For the same compound, in the data set on Hepatotoxicity [6], the “GGT Increase - Activity Score” value is given as “Inactive”, the “GGT Increase - Index Value” turned out to be 0 and the “GGT Increase - Number of Reports” value is reported as under 4.

On to `CCc1c2c(nc3ccc(OC(=O)N4CCC(N5CCCCC5)CC4)cc13)-c1cc3c(c(=O)n1C2)COC(=O)[C@]3(O)CC` [IRINOTECAN], for which, in the data set on Hepatotoxicity [1], the “LDH Increase - Activity Score” value is reported as “Inactive”, the “LDH Increase - Index Value” came out at 4.1 and the “LDH Increase - Number of Reports” value was under 4. In the data set with Hepatotoxicity [2], the “SGOT Increase - Activity Score” value is recorded as “Inactive”, the “SGOT Increase - Index Value” stood at 6.1 and the “SGOT Increase - Number of Reports” value was under 4. Further, in the data set on Hepatotoxicity [3], the “Composite Activity - Active” value was determined as 0, the “Composite Activity - Marginal” value is given as 0 and the “Composite Activity - Score” value is listed as “Inactive”. In the data set on Hepatotoxicity [4], the “SGPT Increase - Activity Score” value was “Inactive”, the “SGPT Increase - Index Value” was 6.1 and the “SGPT Increase - Number of Reports” value was under 4. Moreover, in the data set on Hepatotoxicity [5], the “Alkaline Phosphatase Increase - Activity Score” value was “Inactive”, the “Alkaline Phosphatase Increase - Index Value” came out at 4.1 and the “Alkaline Phosphatase Increase - Number of Reports” value was under 4. Further, in the data set with Hepatotoxicity [6], the “GGT Increase - Activity Score” value is given as “Inactive”, the “GGT Increase - Index Value” turned out to be 2 and the “GGT Increase - Number of Reports” value was under 4.
